How the values were obtained:
novel coronavirus = experiment: In vitro inhibition of cytopathic effect caused by novel coronavirus in Vero E6 cells (CCK8); format: cell-based, COVID-19 novel coronavirus; settings: for inhibition of cytopathic effect caused by the novel coronavirus (in words): Vero E6, summary of Table 1
[1] = system: guinea pig inhaling smoke; experiment: Airway resistance and lung function of guinea pig inhaling smoke; format: in vivo; settings: once daily 4 weeks
Procedure: A smoked model is a classic animal modeling method of chronic obstructive pulmonary disease. After inhaling smoke for a long time, the animal may suffer from increase of mucus secretion, airway obstruction, and decrease of lung function. The effect of lysozyme on the airway obstruction was evaluated by the modeling method.
Male Hartley guinea pigs with weights ranging from 400 g to 500 g were randomly divided into a blank group, a model group, a lysozyme oral administration group (200 mg/kg), a lysozyme inhalation group (2 mg/kg), a lysozyme+monoammonium glycyrrhizinate inhalation group (2 mg/kg+0.1 mg/kg), a lysozyme+monopotassium glycyrrhizinate oral administration group I (200 mg/kg+20 mg/kg), and a lysozyme+monopotassium glycyrrhizinate oral administration group II (200 mg/kg+40 mg/kg), with eight animals in each group.
The animals in each group except the blank group were exposed to cigarette smoke by using a smoke exposure system inhaled only through nose and mouth, so that the animals inhaled smoke of five cigarettes within 40 minutes every day, for 5 days every week, and for 12 consecutive weeks.
Lysozyme and monoammonium glycyrrhizinate used for inhalation administration were respectively crushed into powder with a particle size less than […]. Then lysozyme and monopotassium glycyrrhizinate used for oral administration were respectively dissolved in normal saline.
The animals in each group except the blank group and the model group were administrated once every day for 4 consecutive weeks from the 8t^h week after modeling. The inhalation groups were administrated by a mouth and nose inhalation exposure system, while the oral administration groups were administrated by oral gavage. The blank group and the model group were administrated by oral gavage with normal saline every day.
Airway resistance measurement and the measurement of force expiratory volume in 100ms(millisecond) were performed after administration.
The animals were placed in a double chamber plethysmography system, and a specific airway resistance (sRaw) was measured after the animals were quiet for 10 minutes. The animals were anesthetized by intramuscular injection of ketamine, then a catheter was inserted into the trachea, and the force expiratory volume in 100ms […] was measured by a lung function detection system.

Claudin-1 mRNA = experiment: Expression of intestinal tissue tight junction protein in LPS mice, jejunum, quantitative PCR (Claudin-1); format: in vivo; settings: 100 mg/kg, model 0.73 ± 0.13, blank 1.07 ± 0.11
Procedure: (§1) Grouping and administration of animals: the animals were randomly divided into a blank group, a model group, a lysozyme group (100 mg/kg), a lysozyme+monoammonium glycyrrhizinate group A (100 mg/kg+2 mg/kg), a lysozyme+monoammonium glycyrrhizinate group B (100 mg/kg+10 mg/kg), a lysozyme+monoammonium glycyrrhizinate group C (100 mg/kg+20 mg/kg), and a lysozyme+dipotassium glycyrrhizinate group (100 mg/kg+2 mg/kg), with eight animals in each group. Each drug group was administrated by oral gavage according to the dosage every day, while the blank group and the model group were administrated with normal saline. The administration was continuously performed for 30 days.
(§2) Modeling: after the administration, the animals of each group except the blank group were intraperitoneally injected with 15 mg/kg lipopolysaccharide, and the blank group was injected with the normal saline. The animals were fasted for 12 hours after injection.
(§3) Determination of the expression of intestinal tissue tight junction protein: after the animals were killed, the jejunum tissue sample was taken to extract RNA, and relative expression levels of […] in the tissue were detected by quantitative PCR.

[2] = system: intestinal barrier dysfunction of mice induced by lipopolysaccharide; experiment: Intestinal permeability (serum FITC-glucan) in mice with intestinal barrier dysfunction induced by lipopolysaccharide; format: in vivo; settings: 100 mg/kg oral gavage 30 days; model 35.06 ± 5.75, blank 9.40 ± 1.45
Procedure: Lipopolysaccharide could cause intestinal dysfunction of animals. The protective effects of the lysozyme and the combination containing lysozyme on the intestinal barrier dysfunction of mice induced by the lipopolysaccharide were researched in the test.
Test animals: male C57BL/6 mice with a cleaning degree, and with a weight ranging from 20 g to 25 g.
as §1, with “days. […]” for “days.”
Measurement of intestinal permeability: animals of each group were administrated by oral gavage with 600 mg/kg FITC-glucan (dissolved in a phosphate buffer), and blood was taken from an eyeball after 4 hours. The content of the FITC-glucan in serum was measured by fluorescence spectrometry (with an excitation wavelength of 480 nm and an emission wavelength of 520 nm).

Occludin mRNA = experiment: Expression of intestinal tissue tight junction protein in LPS mice, jejunum, quantitative PCR (occludin); format: in vivo; settings: 100 mg/kg, model 0.54 ± 0.09, blank 1.04 ± 0.12
Procedure: as §1, §2, §3

TNF-α mRNA = format: cell-based, African green monkey; settings: 350 μg/mL; virus control 3.61 ± 0.29, blank 1.01 ± 0.06
IL-6 mRNA = format: cell-based, African green monkey; settings: 350 μg/mL; virus control 7.68 ± 0.50, blank 1.08 ± 0.07
[3] = 1,000 μg/mL, Vero E6, 100TCID50, 4 days
[4] = 2,000 μg/mL, Vero E6, 100TCID50, 4 days

Compound	Inhibition rate (%) on cytopathic effect (novel coronavirus; [3])	Inhibition rate (%) on cytopathic effect (novel coronavirus; [4])	inhibition of cytopathic effect caused by the novel coronavirus (in words) (novel coronavirus)	Airway resistance ([1]; inhalation, 2 mg/kg)	Force expiratory volume in 100 ms ([1]; inhalation, 2 mg/kg)	Force expiratory volume in 100 ms ([1]; oral administration, 200 mg/kg, model 4.18 ± 1.26, blank 11.86 ± 1.24)	Airway resistance ([1]; oral administration, 200 mg/kg, model 4.72 ± 0.38, blank 1.43 ± 0.24)	Claudin-1 mRNA Relative expression quantity (Claudin-1 mRNA)	Inhibition rate (%) on cytopathic effect (novel coronavirus; 350 μg/mL, Vero E6)	Inhibition rate (%) on cytopathic effect (novel coronavirus; 500 μg/mL, Vero E6, 100TCID50, 4 days)	Content of FITC-glucan (serum) [2]	Occludin mRNA Relative expression quantity (Occludin mRNA)	TNF-α mRNA Relative expression quantity (TNF-α mRNA)	IL-6 mRNA Relative expression quantity (IL-6 mRNA)
CC1(C)[C@@H](O[C@H]2O[C@H](C(=O)O)[C@@H](O)[C@H](O)[C@H]2O[C@@H]2O[C@H](C(=O)O)[C@@H](O)[C@H](O)[C@H]2O)CC[C@]2(C)[C@H]3C(=O)C=C4[C@@H]5C[C@@](C)(C(=O)O)CC[C@]5(C)CC[C@@]4(C)[C@]3(C)CC[C@@H]12.N [Monoammonium glycyrrhizinate, monoammonium glycyrrhizinate, reference compound]	23.35 ± 5.43%	29.42 ± 7.16%	weak inhibition effect											
Lysozyme	46.67 ± 15.28%	78.33 ± 2.89%	significantly inhibit	3.10 ± 0.14 cmH2O · s	7.68 ± 1.36 mL	5.79 ± 2.03 mL	3.79 ± 0.30 cmH2O · s	0.79 ± 0.16	6.67 ± 1.56%	15.00 ± 8.66%	27.53 ± 3.21 µg/mL	0.69 ± 0.07	3.12 ± 0.26	6.78 ± 0.30

From patent publication US20230158124A1, “DRUG, FOOD AND APPLICATION OF ANTI-CORONAVIRUS INFECTION” (priority 2020, published 2023)
